According to patent US20040236110A1, “Substituted 3-pyridyl indoles and indazoles as c17,20 lyase inhibitors” (priority 2001, published 2004):

melting point: 138 to 141 °C
Compound: N#Cc1ccccc1-n1ccc2cc(-c3cccnc3)ccc21 [Example 58, 1-(2-Cyanophenyl)-5-(3-pyridyl)-1H-indole]
